Test results published in patent US20090118135A1, “METHODS AND COMPOUNDS FOR REGULATING APOPTOSIS” (The Burnham Institute, priority 2007, published 2009).

Experiments:
[1] = test system: HeLa Tet-On-Bcl-B (HTO2) cells; assay: Cell viability (ATPlite) in HeLa Tet-On-Bcl-B cells with or without doxycycline; format: cell-based; settings: result in words
Procedure: (§1) FIG. 24A is a photograph of a blot wherein HeLa Tet-On (HTO1) and HeLa Tet-On-Bcl-B (HTO2) cells were treated with or without doxycycline (dox) for 24 h to induce their tetracycline-responsive promoters. Protein lysates were collected, and immunoblotting was used to analyze Bcl-B and Hsc70 (for loading control) expression. In FIG. 24B the cells were treated with or without doxycycline for 24 h, and then with staurosporine at the indicated concentrations for 24 h. Cell viability was measured using ATPlite. In FIG. 24C HeLa Tet-On-Bcl-B (HTO2) cells were treated with or without doxacycline as above. Compounds were then added at the indicated concentrations, and cell viability was measured 24 h later using ATPlite. The data shown represent mean±standard deviation (n=3).
HeLa Tet-On-Bcl-B cells were generated by stably transfecting the HeLa Tet-On cell line (Clontech, Mountain View, Calif.) with a pTRE2hyg vector (Clontech) containing the Bcl-B gene, using lipofectAMINE PLUS (Invitrogen, Carlsbad, Calif.). Briefly, cells were seeded overnight and transfected at 50% confluency for 3 h. After 24 h, the cells were re-seeded at <10% confluence and cultured in media (DMEM with 10% Tet System Approved FBS (Clontech)) containing G418 (100 μg/mL) and hygromycin B (300 μg/mL) for pTet-On and pTRE2hyg/Bcl-B plasmid maintenance, respectively. Positive foci resistant to both antibiotics were expanded. Colonies were then cultured in the presence or absence of doxycycline (Clontech, 1 μg/mL) for 16 h, and induced Bcl-B expression was confirmed by Western blot analysis. A previously developed polyclonal Bcl-B antibody^17 and an Hsc70 antibody (for protein concentration comparison; Santa Cruz Biotechnology, Santa Cruz, Calif.) were used.
(§2) Cells were seeded in 96-well plates at 5,000 cells/well in 100 μL of growth medium and allowed to incubate for 24 h. Afterwards, cells were incubated in the presence or absence of doxycycline (1 μg/mL) for another 24 h (to induce Bcl-B expression). Compounds were then added, as indicated, in a volume of 5 μL. The next day, cell viability was measured using the ATPlite Luminescence ATP Detection System (PerkinElmer, Waltham, Mass.) according to the manufacturer's specifications.

[2] = test system: HeLa Tet-On (HTO1) cells; assay: Cell viability (ATPlite) in control HeLa Tet-On cells; format: cell-based; settings: cells do not express Bcl-B; result in words
Procedure: as §1, §2

[3] = target: GST-Bcl-2 (Homo sapiens, UniProt P10415); assay: FITC-TR3-9-r8 direct binding fluorescence polarization assay, Bcl-2; set-up: their C-terminal transmembrane domains (˜20 amino acids) were deleted to enhance protein solubility; made in house; host or cells: E. coli (BL21 Star (DE3); XL-1 Blue), pGEX-4T-1; settings: FIG. 2A; result in words
Chain of GST-Bcl-2 (P10415 1-218 limits assumed): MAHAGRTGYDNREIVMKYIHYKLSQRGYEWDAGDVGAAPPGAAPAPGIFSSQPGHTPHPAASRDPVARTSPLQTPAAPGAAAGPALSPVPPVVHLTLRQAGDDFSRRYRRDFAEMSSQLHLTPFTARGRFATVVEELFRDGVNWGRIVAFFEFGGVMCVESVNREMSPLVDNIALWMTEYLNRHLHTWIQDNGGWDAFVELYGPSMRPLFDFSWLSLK

[4] = target: T1, GST-Bcl-B (Homo sapiens, UniProt Q9HD36); assay: FITC-TR3-r8 direct binding fluorescence polarization assay, Bcl-B; set-up: their C-terminal transmembrane domains (˜20 amino acids) were deleted to enhance protein solubility; made in house; host or cells: E. coli (BL21 Star (DE3); XL-1 Blue), pGEX-4T-1; settings: FIG. 2A; result in words
T1 sequence (Q9HD36 1-182 limits assumed): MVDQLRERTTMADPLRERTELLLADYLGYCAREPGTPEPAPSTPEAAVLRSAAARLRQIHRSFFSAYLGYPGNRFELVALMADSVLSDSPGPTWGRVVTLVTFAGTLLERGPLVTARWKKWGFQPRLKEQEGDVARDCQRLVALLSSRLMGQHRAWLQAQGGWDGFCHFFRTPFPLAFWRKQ

[5] = target: T2, GST-Bfl-1 (Homo sapiens, UniProt Q16548); assay: FITC-TR3-9-r8 direct binding fluorescence polarization assay, Bfl-1; settings: FIG. 2B; result in words
T2 construct: lacking their C-terminal transmembrane domains (about the last 20 amino acids) (“ΔTM”); made in house; host or cells: XL-1 Blue E. coli, pGEX 4T-1
T2 sequence (Q16548 1-155 limits assumed): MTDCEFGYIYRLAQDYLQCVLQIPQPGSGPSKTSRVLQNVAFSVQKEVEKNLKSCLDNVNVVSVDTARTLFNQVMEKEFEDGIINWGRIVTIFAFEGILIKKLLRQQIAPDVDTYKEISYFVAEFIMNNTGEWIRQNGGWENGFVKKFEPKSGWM

[6] = target: T3, GST-Bcl-W (Homo sapiens, UniProt Q92843); assay: FITC-TR3-9-r8 direct binding fluorescence polarization assay, Bcl-W; settings: FIG. 2B; result in words
T3 construct: GST-fusion proteins containing ΔTM versions of Bcl-2, Bcl-XL, Bfl-1, Mcl-1, Bcl-W, and Bcl-B; made in house
T3 sequence (Q92843 1-173 limits assumed): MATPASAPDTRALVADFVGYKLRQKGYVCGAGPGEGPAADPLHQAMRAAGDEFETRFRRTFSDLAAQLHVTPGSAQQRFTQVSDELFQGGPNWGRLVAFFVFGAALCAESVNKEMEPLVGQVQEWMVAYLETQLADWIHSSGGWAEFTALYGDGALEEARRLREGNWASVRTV

[7] = target: T4, GST-Bcl-XL (Homo sapiens, UniProt Q07817); assay: FITC-TR3-9-r8 direct binding fluorescence polarization assay, Bcl-XL; settings: FIG. 2A; result in words
T4 construct: lacking their C-terminal transmembrane domains (about the last 20 amino acids) (“ΔTM”); made in house; host or cells: XL-1 Blue E. coli, pGEX 4T-1
T4 sequence (Q07817 1-212 limits assumed): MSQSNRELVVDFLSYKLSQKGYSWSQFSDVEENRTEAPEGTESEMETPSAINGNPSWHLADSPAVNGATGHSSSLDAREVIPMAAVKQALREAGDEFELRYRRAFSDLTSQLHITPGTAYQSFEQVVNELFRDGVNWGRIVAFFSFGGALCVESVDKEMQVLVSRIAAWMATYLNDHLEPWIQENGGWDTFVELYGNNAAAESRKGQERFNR

SMILES	effect of doxycycline-induced Bcl-B expression on compound-induced cell death [1]	effect of doxycycline on compound-induced cell death in control cells [2]	binding to GST-Bcl-2 [3]	binding to GST-Bcl-B [4]	binding to GST-Bfl-1 [5]	binding to GST-Bcl-W [6]	binding to GST-Bcl-XL [7]
CN[C@@H]1C[C@H]2O[C@@](C)([C@@H]1OC)n1c3ccccc3c3c4c(c5c6ccccc6n2c5c31)C(=O)NC4 [staurosporine]	more resistant to staurosporine-induced cell death	the same level of staurosporine-induced cell death whether or not doxycycline was added	–	–	–	–	–
CC(C)C[C@H](NC(=O)[C@H](CC(C)C)NC(=O)[C@H](CO)NC(=O)[C@H](Cc1c[nH]cn1)NC(=O)[C@H](CC(C)C)NC(=O)[C@H](CO)NC(=O)[C@H](CCCNC(=N)N)NC(=O)[C@H](CO)NC(=O)[C@H](Cc1ccccc1)NC(=O)CCCCCNC(=S)Nc1ccc2c(c1)C(=O)OC21c2ccc(O)cc2Oc2cc(O)ccc21)C(=O)NCC(=O)NCCCCCC(=O)N[C@H](CCCNC(=N)N)C(=O)N[C@H](CCCNC(=N)N)C(=O)N[C@H](CCCNC(=N)N)C(=O)N[C@H](CCCNC(=N)N)C(=O)N[C@H](CCCNC(=N)N)C(=O)N[C@H](CCCNC(=N)N)C(=O)N[C@H](CCCNC(=N)N)C(=O)N[C@H](CCCNC(=N)N)C(N)=O [FITC-TR3-9-r8]	–	–	Binding to GST-Bcl-2	Binding to GST-Bcl-2 and GST-Bcl-B	Binding to GST-Bfl-1	but not GST-Bcl-W	but not GST-Bcl-XL
